In patent publication US20040102387A1 (priority 2002, published 2004):

molecular target: Botulinum neurotoxin type A (Clostridium botulinum, UniProt P0DPI0); type: cell-based
Sequence (P0DPI0 whole entry, looked up): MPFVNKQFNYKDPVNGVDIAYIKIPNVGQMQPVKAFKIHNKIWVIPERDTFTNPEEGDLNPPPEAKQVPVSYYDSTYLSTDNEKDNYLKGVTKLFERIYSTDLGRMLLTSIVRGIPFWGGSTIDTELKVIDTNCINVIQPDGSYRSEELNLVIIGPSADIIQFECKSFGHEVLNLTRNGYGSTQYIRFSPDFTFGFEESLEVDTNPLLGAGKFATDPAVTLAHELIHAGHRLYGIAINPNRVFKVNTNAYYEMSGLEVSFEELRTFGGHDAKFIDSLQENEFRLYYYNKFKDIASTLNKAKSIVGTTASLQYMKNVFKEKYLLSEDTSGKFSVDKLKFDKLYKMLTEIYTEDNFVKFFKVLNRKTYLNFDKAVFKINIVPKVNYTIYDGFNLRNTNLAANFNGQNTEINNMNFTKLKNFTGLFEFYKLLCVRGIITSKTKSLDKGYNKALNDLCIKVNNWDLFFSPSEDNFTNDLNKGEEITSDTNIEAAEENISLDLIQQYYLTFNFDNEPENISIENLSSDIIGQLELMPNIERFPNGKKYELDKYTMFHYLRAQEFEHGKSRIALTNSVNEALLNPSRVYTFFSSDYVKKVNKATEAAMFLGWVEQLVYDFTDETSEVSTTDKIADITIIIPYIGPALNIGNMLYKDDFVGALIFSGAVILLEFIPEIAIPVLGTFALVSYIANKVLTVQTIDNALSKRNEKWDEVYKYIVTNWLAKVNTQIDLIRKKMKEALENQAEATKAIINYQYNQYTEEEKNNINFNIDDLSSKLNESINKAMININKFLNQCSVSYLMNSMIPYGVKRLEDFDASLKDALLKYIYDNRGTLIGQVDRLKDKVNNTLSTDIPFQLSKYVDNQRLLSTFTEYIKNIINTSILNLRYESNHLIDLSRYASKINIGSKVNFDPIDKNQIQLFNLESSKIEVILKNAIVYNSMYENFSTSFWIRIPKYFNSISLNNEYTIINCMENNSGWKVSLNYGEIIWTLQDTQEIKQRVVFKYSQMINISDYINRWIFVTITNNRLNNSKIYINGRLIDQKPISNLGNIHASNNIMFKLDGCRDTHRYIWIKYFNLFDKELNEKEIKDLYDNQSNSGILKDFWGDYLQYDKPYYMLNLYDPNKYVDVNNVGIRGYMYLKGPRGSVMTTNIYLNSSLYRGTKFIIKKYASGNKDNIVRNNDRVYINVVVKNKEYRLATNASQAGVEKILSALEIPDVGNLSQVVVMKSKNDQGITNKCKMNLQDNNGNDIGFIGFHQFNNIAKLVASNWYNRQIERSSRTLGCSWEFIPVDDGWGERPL

Question: How did the “neurotoxin-neutralizing activity (neuromuscular contractility, FIG. 2)” value (shortened to “neurotoxin-neutralizing activity”) turn out when `C[C@@H]1O[C@@H](OC[C@H]2O[C@@H](Oc3c(-c4ccc(O)c(O)c4)oc4cc(O)cc(O)c4c3=O)[C@H](O)[C@@H](O)[C@@H]2O)[C@H](O)[C@H](O)[C@H]1O` [first component, rutin] was run?
Answer: high toxin-neutralizing activities

Question: `C[C@@H]1O[C@@H](OC[C@H]2O[C@@H](Oc3c(-c4ccc(O)cc4)oc4cc(O)cc(O)c4c3=O)[C@H](O)[C@@H](O)[C@@H]2O)[C@H](O)[C@H](O)[C@H]1O` [fourth component, nicotiflorin] was tested. Which “neurotoxin-neutralizing activity” value did it give?
Answer: high toxin-neutralizing activities

Question: For “kaempferol-3-(O-glc-rha)-4′-O-rha [second component]”, which “neurotoxin-neutralizing activity” value is on record?
Answer: high toxin-neutralizing activities

Question: For “kaempferol-3-O-glc-(6-1)-rha-(3-1)-glc [third component]”, which “neurotoxin-neutralizing activity” value is on record?
Answer: high toxin-neutralizing activities
